Like-named read-outs stand apart in the source and are kept apart here. No end group written: not given here.
Key:
[1] = in the brain following ICH, increased BBB permeability
[2] = system: microglia; experiment: CCK-8 microglial viability; type: cell-based, mouse
Text: (§1) Primary cortical neurons were isolated from embryonic day 16–18 (E16–E18) C57BL/6 mouse embryos as previously described, and cultured in Neurobasal medium supplemented with B27 and GlutaMAX (Gibco).Primary microglial cells were isolated from the cortices of neonatal (day 1) C57BL/6J mice. After disinfection with 75 % ethanol, the skin and skull were removed, and the brains were placed in ice-cold HBSS. The meninges were peeled off, the cortex was collected, and the hippocampus was discarded. Tissues were digested with 0.25 % trypsin at 37 °C for 12 min, centrifuged at 1200 rpm for 5 min, and resuspended in complete medium. The suspension was transferred to a T75 flask with 15 mL of complete medium. After 14 days, microglial cells were harvested by shaking the flask at 270–280 rpm for 30 min, and the supernatant was collected. To induce phenotyping, microglial cells were treated with LPS (100 ng/mL) and IFN-γ (20 ng/mL) for 48 h to induce the M1 phenotype, or IL-4 (20 ng/mL) for 48 h to induce the M2 phenotype. […]
Microglia were exposed to 1, 10 100 μM concentrations of TCC or TC and PBS respectively for 24 h, and cell viability was measured. […] Cell viability was assessed using the Cell Counting Kit-8 (C0038, Beyotime) according to the manufacturer’s protocol. Absorbance at 450 nm was measured to determine cell viability.

[3] = system: microglia; experiment: IL-6 release from CIRP-stimulated microglia, ELISA (TCC vs TC); type: cell-based, mouse; settings: peptides 10 μM pre-treated 0.5 h, then rmCIRP 1 μg/mL 24 h, n = 3
Experimental: To validate the effects of TCC and TC in vitro, microglial cells were pre-treated with the peptides (10 μM) for 0.5 h, followed by stimulation with recombinant mouse CIRP (rmCIRP, 1 μg/mL) for 24 h to establish an inflammation model.
ELISA was used to quantify CIRP, MD2, IL-6, and TNF-α concentrations in blood and cerebrospinal fluid samples. Samples were processed and stored under standardized conditions to preserve protein integrity. Each target protein was measured using commercial ELISA kits, following the manufacturer’s instructions: Mouse CIRBP ELISA Kit (CSB-EL005440MO, CUSABIO), Mouse TNF-α ELISA Kit (EK282, Lianke Bio), Mouse IL-6 ELISA Kit (CSB-E04639m, CUSABIO), and Rat TNF-α ELISA Kit (EK382, Lianke Bio).
After disinfection with 75 % ethanol, the skin and skull were removed, and the brains were placed in ice-cold HBSS. The meninges were peeled off, the cortex was collected, and the hippocampus was discarded. Tissues were digested with 0.25 % trypsin at 37 °C for 12 min, centrifuged at 1200 rpm for 5 min, and resuspended in complete medium. The suspension was transferred to a T75 flask with 15 mL of complete medium. After 14 days, microglial cells were harvested by shaking the flask at 270–280 rpm for 30 min, and the supernatant was collected. […] CIRP (1 μg/mL for 24 h) was added to the microglia, which were divided into PBS, CIRP, and CIRP + TCC groups. […]

[4] = system: microglia; experiment: Microglial phagocytosis of CFSE-labeled RBCs; type: cell-based, mouse; settings: rmCIRP 24 h, then CFSE-labeled erythrocytes
Text: as §1, with “collected.” for “collected. To induce phenotyping, microglial cells were treated with LPS (100 ng/mL) and IFN-γ (20 ng/mL) for 48 h to induce the M1 phenotype, or IL-4 (20 ng/mL) for 48 h to induce the M2 phenotype.”
The functional characteristics of microglial cells encompass not only the release of inflammatory cytokines but also their phagocytic activity. […] RBCs were labeled with either 0.5 μM or 5 μM CFSE, and immunofluorescence analysis determined that 5 μM CFSE was the optimal concentration for labeling (Fig. 7G). […]
RBCs were isolated via density gradient centrifugation and labeled with CFSE before being stereotactically injected into the right striatum. […] Cell viability was assessed using a Fixable Viability Dye, and flow cytometric analysis was subsequently performed. […]

[5] = molecular target: T1, recombinant human IL-6 receptor alpha (IL-6Rα) (human, UniProt P08887 20-365); experiment: SPR; human IL-6Rα immobilised on a CM5 chip; human CIRBP or TCC as analyte; settings: both partners purified
T1 construct: Interleukin-6 receptor subunit alpha, human; UniProtKB P08887 is printed for the docking; also called rhIL-6Rα; rhIL-6R; source: recombinant
T1 sequence (looked up): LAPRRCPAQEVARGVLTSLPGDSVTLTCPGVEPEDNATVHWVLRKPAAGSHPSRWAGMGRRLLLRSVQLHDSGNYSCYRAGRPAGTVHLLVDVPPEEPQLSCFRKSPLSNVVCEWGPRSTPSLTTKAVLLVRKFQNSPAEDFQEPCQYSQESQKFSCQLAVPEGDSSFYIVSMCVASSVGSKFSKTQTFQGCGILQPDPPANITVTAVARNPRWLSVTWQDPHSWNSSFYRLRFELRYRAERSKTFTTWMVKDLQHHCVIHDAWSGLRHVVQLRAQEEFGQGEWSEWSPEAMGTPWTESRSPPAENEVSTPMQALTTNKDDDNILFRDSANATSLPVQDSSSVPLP

With “YGRKKRRQRRRGRGFSRGGGDRGYGGKFERQKILDQRFFE [TCC]” the “ability to cross the BBB” value [1] was “effectively traverse the BBB” and the microglial viability ([2]; 10 μM, 24 h, CCK-8, n = 3) was “did not affect microglial viability”.

In the case of YGRKKRRQRRRRFESRSGGYGGSRD [TC], the microglial viability [2] is reported as “did not affect microglial viability” and the “IL-6 release in culture supernatants” value [3] is reported as “reduced IL-6 release”.

B1: rmCIRP: recombinant mouse CIRP (rmCIRP, 1 μg/mL) (protein, UniProt P60824 1-172, looked up)
Cold-inducible RNA-binding …: MASDEGKLFVGGLSFDTNEQALEQVFSKYGQISEVVVVKDRETQRSRGFGFVTFENIDDAKDAMMAMNGKSVDGRQIRVDQAGKSSDNRSRGYRGGSAGGRGFFRGGRSRGRGFSRGGGDRGYGGGRFESRSGGYGGSRDYYASRSQGGSYGYRSSGGSYRDSYDSYATHNE
In the case of B1, the “phagocytosis of RBCs, Cirbp^−/− vs WT microglia” value [4] is reported as “greater capacity to phagocytize CFSE-labeled erythrocytes compared to WT microglia”.

B2: Tat-CIRP-CMA peptide (peptide)
peptide: YGRKKRRQRRRGRGFSRGGGDRGYGGKFERQKILDQRFFE
notes: also called TCC; source: synthetic peptide (Heifei KS-V Peptide Biotechnology, China)
Work on B2 yielded a Kd [5] of 4.12 nM.
